From patent publication US9351955B2, “Compounds and pharmaceutical compositions thereof for the treatment of cystic fibrosis” (Galapagos NV, priority 2013, dated 2016)
pEC50: −log10 of the molar value. “And” between values parts separate entries of the source, which are not always exact repeats. Equal entries are not always repeated. Where two headings read alike, the source gives them in different places.

Key:
Type in all cases: cell-based
CFTR ΔF508 mutant [1] = molecular target: T1, CFTR ΔF508 mutant (Homo sapiens, UniProt P13569, DEL508-508); assay: YFP-halide influx assay for the CFTR-ΔF508 mutation (384 well, CFBE41o- cells, FDSS/μCell); conditions: forskolin 10.67 μM, fluorescence after 36 seconds, read-out: EC50 measured by YFP-halide influx assay for the CFTR-ΔF508
T1 construct: expressed in transfected cells; host or cells: CFBE41o- (adenoviral transduction)
T1 sequence (P13569 with tags, fused parts or gaps DEL508-508): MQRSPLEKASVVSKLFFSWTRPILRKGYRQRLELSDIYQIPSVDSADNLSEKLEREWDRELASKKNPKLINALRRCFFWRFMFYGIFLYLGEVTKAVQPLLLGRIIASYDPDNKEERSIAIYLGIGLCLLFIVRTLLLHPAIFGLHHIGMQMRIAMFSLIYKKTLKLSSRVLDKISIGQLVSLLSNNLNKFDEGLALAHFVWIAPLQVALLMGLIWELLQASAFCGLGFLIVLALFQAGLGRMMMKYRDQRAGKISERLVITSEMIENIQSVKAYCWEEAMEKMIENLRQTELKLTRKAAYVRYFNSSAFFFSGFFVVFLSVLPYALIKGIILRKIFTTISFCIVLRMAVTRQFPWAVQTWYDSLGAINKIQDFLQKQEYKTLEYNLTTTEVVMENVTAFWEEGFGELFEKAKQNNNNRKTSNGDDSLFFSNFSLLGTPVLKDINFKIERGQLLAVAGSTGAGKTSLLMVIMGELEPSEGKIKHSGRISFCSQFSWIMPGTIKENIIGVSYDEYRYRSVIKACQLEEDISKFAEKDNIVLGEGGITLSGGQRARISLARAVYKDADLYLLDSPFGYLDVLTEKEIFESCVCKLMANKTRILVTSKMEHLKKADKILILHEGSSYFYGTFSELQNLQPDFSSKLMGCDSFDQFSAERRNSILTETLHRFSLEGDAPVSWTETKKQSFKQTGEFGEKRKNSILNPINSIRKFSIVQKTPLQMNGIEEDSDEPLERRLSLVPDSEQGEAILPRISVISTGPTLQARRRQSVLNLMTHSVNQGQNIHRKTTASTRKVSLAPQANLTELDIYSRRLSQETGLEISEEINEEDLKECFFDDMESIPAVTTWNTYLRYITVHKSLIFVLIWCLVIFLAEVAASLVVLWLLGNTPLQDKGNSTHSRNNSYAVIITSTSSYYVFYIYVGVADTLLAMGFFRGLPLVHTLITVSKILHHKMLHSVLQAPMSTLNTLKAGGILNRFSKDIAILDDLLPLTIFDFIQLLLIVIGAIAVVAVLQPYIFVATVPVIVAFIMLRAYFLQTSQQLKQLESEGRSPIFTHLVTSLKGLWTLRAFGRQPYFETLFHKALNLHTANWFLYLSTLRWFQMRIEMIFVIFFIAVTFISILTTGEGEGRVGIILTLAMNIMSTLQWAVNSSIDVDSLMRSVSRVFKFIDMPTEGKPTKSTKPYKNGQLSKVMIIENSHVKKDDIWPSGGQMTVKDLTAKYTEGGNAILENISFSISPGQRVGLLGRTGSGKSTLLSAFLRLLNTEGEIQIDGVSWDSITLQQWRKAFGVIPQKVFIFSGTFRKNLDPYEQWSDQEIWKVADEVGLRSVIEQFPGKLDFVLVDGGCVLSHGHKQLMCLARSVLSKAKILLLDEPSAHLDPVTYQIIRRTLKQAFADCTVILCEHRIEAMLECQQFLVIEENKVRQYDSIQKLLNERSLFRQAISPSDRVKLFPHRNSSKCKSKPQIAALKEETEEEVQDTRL
Method in brief: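 CFBE41o- cells were adenovirally transduced with ΔF508 CFTR and the YFP H148Q/I152L reporter. Cells were then held 24 h at 27 °C or treated 24 h at 37 °C with a CFTR modulator. Iodide-induced quench was recorded for 2 min, and EC50 was derived from 1−F/F0 at 36 s against compound concentration.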

CFTR-G178R = molecular target: T2, CFTR-G178R (Homo sapiens, UniProt P13569, G178R); assay: YFP-halide influx assay for the CFTR-G178R; conditions: read-out: EC50 measured by YFP-halide influx assay for the CFTR-G178R
T2 construct: expressed in transfected cells
T2 sequence (P13569 whole entry G178R): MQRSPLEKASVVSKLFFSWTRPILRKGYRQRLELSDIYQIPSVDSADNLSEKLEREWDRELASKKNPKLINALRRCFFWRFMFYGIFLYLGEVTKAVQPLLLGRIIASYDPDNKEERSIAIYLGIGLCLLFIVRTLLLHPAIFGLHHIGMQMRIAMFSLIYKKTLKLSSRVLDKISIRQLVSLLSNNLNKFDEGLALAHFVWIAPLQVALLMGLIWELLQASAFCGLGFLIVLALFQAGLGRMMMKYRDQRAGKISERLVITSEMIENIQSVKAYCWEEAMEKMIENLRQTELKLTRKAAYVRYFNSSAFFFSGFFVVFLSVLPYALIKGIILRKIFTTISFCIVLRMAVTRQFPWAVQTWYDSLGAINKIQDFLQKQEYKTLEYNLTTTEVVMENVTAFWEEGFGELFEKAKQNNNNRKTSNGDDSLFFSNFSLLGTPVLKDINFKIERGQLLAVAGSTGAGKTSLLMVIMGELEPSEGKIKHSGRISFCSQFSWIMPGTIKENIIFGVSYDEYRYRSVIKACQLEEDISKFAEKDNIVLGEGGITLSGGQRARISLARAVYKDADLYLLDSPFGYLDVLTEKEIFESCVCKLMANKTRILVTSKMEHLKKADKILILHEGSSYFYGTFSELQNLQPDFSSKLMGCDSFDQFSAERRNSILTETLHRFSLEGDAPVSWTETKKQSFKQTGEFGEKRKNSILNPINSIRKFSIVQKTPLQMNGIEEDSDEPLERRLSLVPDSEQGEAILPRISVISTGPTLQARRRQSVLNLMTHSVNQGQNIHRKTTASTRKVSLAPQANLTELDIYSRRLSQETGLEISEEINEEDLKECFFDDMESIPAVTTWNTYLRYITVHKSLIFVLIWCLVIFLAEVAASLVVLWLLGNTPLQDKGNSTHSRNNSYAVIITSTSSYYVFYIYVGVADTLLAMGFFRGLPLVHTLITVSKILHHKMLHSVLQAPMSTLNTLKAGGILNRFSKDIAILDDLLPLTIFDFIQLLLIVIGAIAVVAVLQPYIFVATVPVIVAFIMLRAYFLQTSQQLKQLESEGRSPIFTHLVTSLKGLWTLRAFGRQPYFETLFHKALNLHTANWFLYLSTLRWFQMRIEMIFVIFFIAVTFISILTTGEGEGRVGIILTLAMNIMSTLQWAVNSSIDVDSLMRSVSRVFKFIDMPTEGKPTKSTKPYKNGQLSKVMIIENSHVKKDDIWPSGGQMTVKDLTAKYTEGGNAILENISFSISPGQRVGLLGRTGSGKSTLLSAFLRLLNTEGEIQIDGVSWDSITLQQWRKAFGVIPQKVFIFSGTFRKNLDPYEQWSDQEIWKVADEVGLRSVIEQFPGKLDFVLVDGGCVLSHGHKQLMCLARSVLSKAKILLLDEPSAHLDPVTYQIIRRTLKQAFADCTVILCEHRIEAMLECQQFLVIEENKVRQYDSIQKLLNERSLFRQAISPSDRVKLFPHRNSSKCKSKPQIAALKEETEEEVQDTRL
From the text: (§1) The YFP halide influx assay measures the functionality of the cystic fibrosis Transmembrane Conductance regulator (CFTR) channels. The assay is used to evaluate the capacity of compounds to increase the channel opening of existing mutant CFTR channels in the membrane. It makes use of the observation that the yellow fluorescent protein (YFP) variant YFP H148Q, I152L, F47L has its fluorescence substantially quenched by halide ions like Cl^− and I^−. (Galietta et al., 2001)
(§2) For this purpose, HEK293-cells are seeded in 96 well plates. During seeding, the cells are reverse-transfected with plasmid vectors that direct the expression of the CFTR G551D mutant and of the YFP reporter. Cells are incubated at 37° C., 5% CO2 for 24 hours so as to allow for sufficient expression of the CFTR protein.
(§3) The I^−-induced quenching of fluorescence is recorded immediately after injection of I^− for 7 seconds. The capacity of a compound to increase the channel opening is directly correlated with the decrease in fluorescence, and is expressed as (1−(fluorescence after 7 seconds (F)/fluorescence before injection (F0))) and an EC50 can be derived from a (1−F/F0) vs compound concentration plot.
(§4) Similar YHA assays were developed for other channel gating defective or channel conductance defective CFTR mutants to determine effect of compound on channel activity. Examples of mutants are G178R, G1349D, S549N, R117H, R334W. This assay is also used for additional class I CFTR mutants, including G542X, W1282X; class II mutants including N1303K, and for class III mutants including S1251N; or wild-type CFTR.

CFTR-G1349D = molecular target: T3, CFTR-G1349D (Homo sapiens, UniProt P13569, G1349D); assay: YFP-halide influx assay for the CFTR-G1349D; conditions: CFTR-G1349D mutant; read-out: EC50 measured by YFP-halide influx assay for the CFTR-G1349D
T3 construct: expressed in transfected cells
T3 sequence (P13569 whole entry G1349D): as the sequence (P13569 whole entry G178R) above, with R178G, G1349D counted along it
From the text: as §1, §2, §3, §4

CFTR-S549N = molecular target: T4, CFTR-S549N (Homo sapiens, UniProt P13569, S549N); assay: YFP-halide influx assay for the CFTR-S549N; conditions: CFTR-S549N mutant; read-out: EC50 measured by YFP-halide influx assay for the CFTR-S549N
T4 construct: expressed in transfected cells
T4 sequence (P13569 whole entry S549N): as the sequence (P13569 whole entry G178R) above, with R178G, S549N counted along it
From the text: as §1, §2, §3, §4

CFTR-R117H = molecular target: T5, CFTR-R117H (Homo sapiens, UniProt P13569, R117H); assay: YFP-halide influx assay for the CFTR-R117H; conditions: CFTR-R117H mutant; read-out: EC50 measured by YFP-halide influx assay for the CFTR-R117H
T5 construct: expressed in transfected cells
T5 sequence (P13569 whole entry R117H): as the sequence (P13569 whole entry G178R) above, with R117H, R178G counted along it
From the text: as §1, §2, §3, §4

CFTR ΔF508 mutant [2] = molecular target: T1, CFTR ΔF508 mutant; assay: YFP-halide influx assay for the CFTR-ΔF508 mutation (96 well, CFBE41o- cells); conditions: read-out: EC50 measured by YFP-halide influx assay for the CFTR-ΔF508
From the text: 6.1. YFP-Halide Influx Assay for the CFTR-ΔF508 Mutation
as §1, with “channels in the cystic fibrosis bronchial epithelium cell line CFBE41o-.” for “channels.”, “open probability” for “channel opening”, “existing” for “existing mutant”, “I152L” for “I152L, F47L”, “2001; Nagai et al., 2002)” for “2001)”
For this purpose, CFBE410-cells are seeded in 96 well plates (6000 CFBE cells/well). One day after seeding, the CFBE cells are transduced with adenoviral vectors that direct the expression of the CFTR ΔF508 mutant and of the YFP reporter. Cells are incubated at 27° C., 5% CO2 for 24 hours so as to allow for the proper folding and migration to the membrane of the CFTR channel or treated with a CFTR modulator during 24 h at 37° C.
as §3, with “[…]” for “I^−-induced”, “(1-(fluorescence” for “(1−(fluorescence”

CFTR G551D mutant = molecular target: T6, CFTR G551D mutant (Homo sapiens, UniProt P13569, G551D); assay: YFP-halide influx assay for the CFTR-G551D mutation (HEK293 cells); conditions: read-out: EC50 measured by YFP-halide influx assay for the CFTR-G551D
T6 construct: expressed in transfected cells; host or cells: HEK293 (reverse transfection with plasmids)
T6 sequence (P13569 whole entry G551D): as the sequence (P13569 whole entry G178R) above, with R178G, G551D counted along it
Method in brief: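 HEK293 cells reverse-transfected with CFTR G551D and halide-sensitive YFP, expressed 24 h at 37 °C. Iodide-induced fluorescence quench recorded for 7 s after I^− injection; response as 1−F/F0, EC50 from concentration plot.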

CFTR ΔF508 = molecular target: T7, CFTR ΔF508 (Homo sapiens, UniProt P13569, DEL508-508); assay: TECC assay, primary bronchial epithelial cells from CF patients homozygous for CFTR ΔF508; conditions: for ΔIsc / Current increase: TECC assay; for Current increase: compound at 50 nM, difference between ΔIsc with compound and ΔIsc DMSO (baseline); for activity on the CFTR protein in TECC assay (ΔISC vs DMSO baseline): at 3 μM, or 50 nM, or 50/100/200 nM; for pEC50: primary bronchial epithelial cells, CFTR ΔF508, several values in a cell = repeat determinations
T7 construct: host or cells: primary bronchial epithelial cells from CF patients homozygous for ΔF508, pre-treated with VX809
T7 sequence (P13569 with tags, fused parts or gaps DEL508-508): as the sequence (P13569 with tags, fused parts or gaps DEL508-508) above
Description: 7.2.1. Primary Bronchial Epithelial Cells Protocol
The TECC (Tranepithelial Clamp Circuit, EP-design) assay measures the functionality of the cystic fibrosis Transmembrane Conductance regulator (CFTR) by measuring the short circuit current (ISC) generated over the basolateral and apical membrane of lung epithelial cells. In TECC the transepithelial potential PD and transepithelial resistance (Rt) are measured in an open circuit and transformed to ISC using Ohm's law. 24 wells can be measured simultaneously allowing a higher throughput compared to Ussing chambers.
For this purpose, bronchial epithelial cells isolated from CF patients homozygous for the CFTR ΔF508 mutation (hAEC-CF, Epithelix) are plated on type IV collagen-coated Transwell supports (Costar). Human airway epithelia are generated by provision of an air-liquid interface for 21 days to form well-differentiated polarized cultures that resemble in vivo pseudo-stratified ciliated epithelium (Fulcher et al., 2005). In the case of the homozygous ΔF508 CFTR samples, the differentiated cells are treated with 3 μM VX809 (2626 South Loop West, Suite 225, Houston, Tex. 77054 USA, Cat n#51565) to allow sufficient expression of properly folded CFTR protein on the membrane (48 hours basolateral treatment and 24 hours apical treatment), prior to electrophysiological recordings. […] G551D/ΔF508, differentiated cells are used as such for the recordings.
Information on the compounds can be retrieved on the homozygous ΔF508 CFTR samples looking at increased CFTR activity when compounds are added in an acute mode or in a chronic mode. On G551D/ΔF508 CFTR heterozygous samples compounds are added in an acute mode to the differentiated cells.
For the acute mode, for electrophysiological recording, the human airway epithelia are mounted in the TECC heating plate for electrophysiological measurement and kept at 37° C. The epithelia are bathed in a NaCl-Ringer solution (120 mM NaCl, 25 mM NaHCO3, 1.2 mM CaCl2, 1.2 mM MgCl2, 0.8 mM KH2PO4, 0.8 mM K2HPO4, pH 7.4, 5 mM glucose) on both the basolateral and apical sides. Apical amiloride is used to inhibit the endogenous ENaC currents while forkolin is applied on both apical and basolateral side to stimulate CFTR. After forskolin triggering, compounds are added on both sides to test their potential for increasing CFTR gating. Measurements are done during a 20 minute timeframe with recordings every 2 minutes. The increase in ISC is used as a measure for the increased CFTR activity, EC50 values can be generated by measuring impact of different concentrations of compound on ISC on primary cells, for this purpose each transwell is treated with a different compound concentration. Inh-172, an inhibitor specific for CFTR, is used to test the specificity of the tested compounds.
For the chronic mode, the differentiated cells are treated with 3 μM VX809 (2626 South Loop West, Suite 225, Houston, Tex. 77054 USA, Cat n#51565) and potentiator compounds at different concentrations (48 hours basolateral treatment and 24 hours apical treatment), prior to electrophysiological recordings. For electrophysiological recording, the human airway epithelia are mounted in the TECC heating plate for electrophysiological measurement and kept at 37° C. […]

[3] = comparative compounds, HEK293 cells
[4] = compounds of the invention, 96 well, forskolin 10.67 μM
[5] = HEK293 cells expressing CFTR G551D and YFP reporter, forskolin 10.67 μM

Row | pEC50 (CFTR ΔF508 mutant [1]) | pEC50 (CFTR ΔF508 mutant [2]; comparative compounds) | ΔIsc (CFTR ΔF508; compound at 50 nM (Table XV)) [μA/cm^2] | ΔIsc (CFTR ΔF508; compound at 50 nM (Table XVI)) [μA/cm^2] | Current increase (CFTR ΔF508) [μA/cm^2] | ΔIsc (CFTR ΔF508; compound at 100 nM (Table XVI)) [μA/cm^2] | ΔIsc (CFTR ΔF508; compound at 200 nM (Table XVI)) [μA/cm^2] | activity on the CFTR protein in TECC assay (ΔISC vs DMSO baseline) (CFTR ΔF508) | SMILES | further results
1 | 8.71 |  |  |  |  |  |  |  | CC(C)C(O)C(=O)Nc1sc2c(c1C(N)=O)CC(C)(C)OC2(C)C (single isomer, unassigned) [Compound 52, 2-[[2-hydroxy-3-methyl-butanoyl]amino]-5,5,7,7-tetramethyl-4H-thieno[2,3-c]pyran-3-carboxamide] | pEC50 (CFTR-G178R): 7.40; pEC50 (CFTR-G1349D): 7.22; pEC50 (CFTR-S549N): 7.06; pEC50 (CFTR-R117H): 7.94
2 |  | < 5.00 | −0.3248 | −0.3807 | −0.0559 | −0.5401 | −0.6598 | no such activity | CN1CCc2c(sc(NC(=O)c3ccccc3O)c2C(N)=O)C1 [A, 2-(2-hydroxybenzamido)-6-methyl-4,5,6,7-tetrahydrothieno[2,3-c]pyridine-3-carboxamide, reference compound] | pEC50 (CFTR G551D mutant; [3]): < 5.00
3 |  | > 6.43 | 0.1807 | 0.1807 | 0.5055 | 0.4762 | 0.8022 | no such activity | NC(=O)c1c(NC(=O)c2ccccc2Cl)sc2c1CCCC2 [B, 2-(2-chlorobenzamido)-4,5,6,7-tetrahydrobenzo[b]thiophene-3-carboxamide, reference compound] | 
4 | 7.79 |  |  |  |  |  |  |  | CC1(C)Cc2c(sc(NC(=O)C(C)(C)O)c2C(N)=O)C(C)(C)O1 [Compound 6, 2-(2-hydroxy-2-methylpropanamido)-5,5,7,7-tetramethyl-5,7-dihydro-4H-thieno[2,3-c]pyran-3-carboxamide] | pEC50 (CFTR ΔF508 mutant [2]; [4]): 7.12; pEC50 (CFTR ΔF508): 6.78 and 7.22
5 | 9.15 |  |  |  |  |  |  |  | CC1(C)Cc2c(sc(NC(=O)c3ccc(F)cc3O)c2C(N)=O)C(C)(C)O1 [Compound 21, 2-(4-fluoro-2-hydroxybenzamido)-5,5,7,7-tetramethyl-5,7-dihydro-4H-thieno[2,3-c]pyran-3-carboxamide] | pEC50 (CFTR ΔF508 mutant [2]; [4]): 8.19; pEC50 (CFTR G551D mutant; [5]): 7.24; pEC50 (CFTR ΔF508): 7.79
6 |  |  |  |  |  |  |  |  | CC1(C)Cc2c(sc(NC(=O)c3ccnn3COP(=O)(O)O)c2C(N)=O)C(C)(C)O1 [Compound 92, [5-[(3-carbamoyl-5,5,7,7-tetramethyl-4H-thieno[2,3-c]pyran-2-yl)carbamoyl]pyrazol-1-yl]methyl dihydrogen phosphate] | pEC50 (CFTR-G178R): 7.08
7 | 7.61 |  |  |  |  |  |  |  | CC1(C)Cc2c(sc(NC(=O)c3n[nH]cc3C3COCCO3)c2C(N)=O)C(C)(C)O1 (centres unmarked) [Compound 95, N-(3-carbamoyl-5,5,7,7-tetramethyl-4H-thieno[2,3-c]pyran-2-yl)-4-(1,4-dioxan-2-yl)-1H-pyrazole-3-carboxamide] | pEC50 (CFTR G551D mutant; [5]): 5.97; pEC50 (CFTR-G1349D): 7.09; pEC50 (CFTR-S549N): 6.54; pEC50 (CFTR-R117H): 6.97
8 |  | 6.32 | 0.1663 | 0.1663 | 0.4911 | −0.0318 | 0.5241 | no such activity | NC(=O)c1c(NC(=O)c2cc[nH]n2)sc2c1CCOC2 [E, N-(3-carbamoyl-5,7-dihydro-4H-thieno[2,3-c]pyran-2-yl)-1H-pyrazole-3-carboxamide, reference compound] | pEC50 (CFTR G551D mutant; [3]): 5.54
